Measured values published in ChEMBL document CHEMBL3232896, “Biological evaluation of new mimetics of annonaceous acetogenins: alteration of right scaffold by click linkage with aromatic functionalities” (Eur J Med Chem, 2014).

How the values were obtained:
[1] = Antiproliferative activity against human HLF assessed as growth inhibition after 72 hrs by MTT assay; conditions: HLF cells
HCT-116 = assay: Antiproliferative activity against human HCT116 cells assessed as growth inhibition after 72 hrs by MTT assay; format: functional; conditions: HCT-116, 72 h
[2] = Antiproliferative activity against human SGC7901 cells assessed as growth inhibition after 72 hrs by MTT assay; format: functional; conditions: SGC-7901, 72 h

SMILES	GI50 at 72 h [1]	GI50 (HCT-116)	GI50 [2]
COc1cccc2c1C(=O)c1c(O)c3c(c(O)c1C2=O)C[C@@](O)(C(=O)CO)C[C@@H]3O[C@H]1C[C@H](N)[C@H](O)[C@H](C)O1 [DOXORUBICIN]	0.33 µM	0.15 µM	0.55 µM
O[C@H](COCCOC[C@@H](O)Cc1cn(-c2ccc(N3CCOCC3)cc2)nn1)Cc1ccc(-c2ccccc2)cc1	> 100 µM	8.3 µM	20.7 µM
O[C@H](COCCOC[C@@H](O)Cc1cn(-c2cncnc2)nn1)Cc1ccc(-c2ccccc2)cc1	> 100 µM	> 100 µM	> 100 µM
O[C@H](COCCOC[C@@H](O)Cc1cn(-c2cncc3ccccc23)nn1)Cc1ccc(-c2ccccc2)cc1	10.8 µM	17.8 µM	29.3 µM
CCCCCCCCCC[C@H](O)COCCOC[C@@H](O)CCCCCCCCCCCCC1=C[C@H](C)OC1=O	27.8 µM	0.181 µM	0.076 µM
COC1=C(OC)C(=O)C(CCCCCCCCCCCCCCCn2cc(C[C@H](O)COCCOC[C@@H](O)Cc3ccc(-c4ccccc4)cc3)nn2)=C(C)C1=O	> 50 µM	1.5 µM	2.49 µM
N#Cc1ccc(Cn2cc(C[C@H](O)COCCOC[C@@H](O)Cc3ccc(-c4ccccc4)cc3)nn2)cc1	36.6 µM	8.8 µM	7.7 µM
O[C@H](COCCOC[C@@H](O)Cc1cn(Cc2ccc3ccccc3c2)nn1)Cc1ccc(-c2ccccc2)cc1	19.8 µM	8.6 µM	12.1 µM
O[C@H](COCCOC[C@@H](O)Cc1cn(Cc2ccc(Oc3ccccc3)cc2)nn1)Cc1ccc(-c2ccccc2)cc1	22.8 µM	3.4 µM	4.5 µM
O[C@H](COCCOC[C@@H](O)Cc1c[nH]nn1)Cc1ccc(-c2ccccc2)cc1	> 100 µM	> 100 µM	> 100 µM
COC1=C(OC)C(=O)C(CCCCCCn2cc(C[C@H](O)COCCOC[C@@H](O)Cc3ccc(-c4ccccc4)cc3)nn2)=C(C)C1=O	> 50 µM	5 µM	16.6 µM
COC1=C(OC)C(=O)C(CCCCCCCCCCn2cc(C[C@H](O)COCCOC[C@@H](O)Cc3ccc(-c4ccccc4)cc3)nn2)=C(C)C1=O	18.3 µM	0.6 µM	3.8 µM
O[C@H](COCCOC[C@@H](O)Cc1cn(-c2cccnc2)nn1)Cc1ccc(-c2ccccc2)cc1	> 100 µM	46.8 µM	29.8 µM
CC1=C(CCCCCCCCCCn2cc(C[C@H](O)COCCOC[C@@H](O)Cc3ccc(-c4ccccc4)cc3)nn2)C(=O)c2ccccc2C1=O	22.6 µM	3 µM	0.39 µM
O[C@H](COCCOC[C@@H](O)Cc1cn(Cc2ccc(C(F)(F)F)cc2)nn1)Cc1ccc(-c2ccccc2)cc1	29.8 µM	2.5 µM	8.7 µM
O[C@H](COCCOC[C@@H](O)Cc1cn(-c2cccs2)nn1)Cc1ccc(-c2ccccc2)cc1	> 100 µM	33.4 µM	33.4 µM
O[C@H](COCCOC[C@@H](O)Cc1cn(-c2ccc3c(c2)OCCO3)nn1)Cc1ccc(-c2ccccc2)cc1	5.2 µM	16.5 µM	6.4 µM
O[C@H](COCCOC[C@@H](O)Cc1cn(-c2ccc3[nH]ccc3c2)nn1)Cc1ccc(-c2ccccc2)cc1	> 100 µM	15.5 µM	45.6 µM
O[C@H](COCCOC[C@@H](O)Cc1cn(Cc2cccc(-c3ccccc3)c2)nn1)Cc1ccc(-c2ccccc2)cc1	> 100 µM	7.2 µM	10.6 µM
COC1=C(C)C(=O)C(CCCCCCCCCCn2cc(C[C@H](O)COCCOC[C@@H](O)Cc3ccc(-c4ccccc4)cc3)nn2)=C(C)C1=O	35.1 µM	4 µM	0.505 µM
O=C1COc2ccc(-n3cc(C[C@H](O)COCCOC[C@@H](O)Cc4ccc(-c5ccccc5)cc4)nn3)cc2N1	> 100 µM	42.5 µM	15.2 µM
CC1=C(C)C(=O)C(CCCCCCCCCCn2cc(C[C@H](O)COCCOC[C@@H](O)Cc3ccc(-c4ccccc4)cc3)nn2)=C(C)C1=O	> 25 µM	0.9 µM	0.35 µM
O=c1[nH]c2ccc(-n3cc(C[C@H](O)COCCOC[C@@H](O)Cc4ccc(-c5ccccc5)cc4)nn3)cc2s1	47.7 µM	9.2 µM	10.5 µM
